Data from patent US7183291B2 (Council of Scientific and Industrial Research, priority 1999, dated 2007).
“And” between values parts separate entries of the source, which are not always exact repeats. Identical values can stand only once.

Experiments:
rodent malaria [1] = conditions: in vivo; cited from earlier work
rodent malaria [2] = conditions: in vivo; cited from earlier work; remark: listed apart in the source
[3] = system: P. cynomolgi B gametocytes; assay: Gametocytocidal test: infectivity of gametocytes from treated P. cynomolgi infected Rhesus monkeys to An. stephensi mosquitoes; format: in vivo
Experimental: For the gametocytocidal test, batches of 3–4 day old An. Stephensi were allowed to feed on P. cynomolgi infected Rhesus monkeys at appropriate gametocytaemia level. […] […] Mosquitoes were maintained as 26±1° C. under optimal insectary conditions. The infectivity rate and the oocyst counts were recorded on day 8. Mosquitoes were further maintained in the insectary to record the formation of sporozoites and the absence of sporozoites in some of the batches was also ensured by inoculation of mosquito homogenates into native monkeys.

[4] = oral labelled primaquine; cited from earlier work
[5] = system: G-6-PD deficient erythrocytes; assay: Reduced glutathione (GSH) in G-6-PD deficient human erythrocytes after 3 h incubation; format: cell-based; conditions: 25 and 50 μg/ml of PQ and equivalent doses, P<0.001
Description: (§1) Drug induced haemolysis is a serious complication in persons deficient in G-6-PD enzyme. The presence of reduced glutathione (GSH) in erythrocytes control the level of oxidative metabolites. Therefore, drugs, which cause lesser oxidation of GSH level are safe. […] G-6-PD deficiency was detected by the fluorescent spot screening test and confirmed by the enzyme assay method. Heparinised blood samples were collected from each individual and after centrifugation, the packed cells were washed three times with cold saline. […] GSH levels were estimated by the method of Bentler et al [Improved Method for the Determination of Blood Glutathione, J. Lab.

normal erythrocytes = assay: Reduced glutathione (GSH) in normal human erythrocytes after 3 h incubation; format: cell-based
Description: as §1

[6] = Methaemoglobin levels in Beagle dogs after 7-day oral treatment
Experimental: Colony bred beagle dogs were maintained in the kennel house of the Institute and fed with a standard diet.
Treatment was administered once daily for seven doses (day 0–6), the day of the first dose being day 0. […] 5 ml. blood was collected from beagle dogs on day 0, 3, 7, 13 and 25 using potassium-oxalate crystals as anticoagulant. All the estimations/tests were conducted on the same day of collection of blood. Methaemoglobin was assayed by the method of Evelyn and Malloy (1938, J. Biol. Chem., 126, 655–662).

rodent malaria [7] = conditions: given directly to the insect; cited from earlier work
[8] = 1.00 mg/kg at 0 hr, feeding +24 hr
[9] = 1.00 mg/kg at 0 hr, feeding +48 hr
[10] = 1.00 mg/kg at 0 hr, feeding −1 hr (pre-treatment)
[11] = 3.16 mg/kg at 0 hr, feeding +24 hr
[12] = 3.16 mg/kg at 0 hr, feeding −1 hr (pre-treatment)

In the case of `COc1cc(NC(C)CCCN)c2ncccc2c1` (stereo not drawn) [Primaquine, 8-(4-amino-1-methylbutylamino)-6-methoxy quinoline, reference compound], the gametocytocidal activity (rodent malaria [1]) is given as “very potent gametocytocidal agent”, the blood schizontocidal activity (rodent malaria [2]) is given as “has blood schizontocidal activities” and the loss of infectivity ([3]; 1.00 mg/kg) is given as roughly 98%. For the same molecule, the “No. of mosquitoes infected/dissected” value ([3]; 1.00 mg/kg at 0 hr, feeding +5 hr) was 32/44 and 36/46, the “No. of mosquitoes infected/dissected” value [3, 8] was 0/55 and 3/45 and the “Parasitaemia/mm^3 Asexual” value [3, 8] was 28048 /mm^3 and 26832 /mm^3. For the same molecule, the “% infectivity” value [3, 9] was “(0) %”, the “No. of mosquitoes infected/dissected” value [3, 9] was 0/40 and the “Parasitaemia/mm^3 Asexual” value [3, 9] was 15332 /mm^3 and 12140 /mm^3. For the same molecule, the “oocyst no. per gut (Mean ± SD)” value [3, 9] was “Nil”, the “No. of mosquitoes infected/dissected” value [3, 10] was 25/34 and 32/40 and the “Parasitaemia/mm^3 Asexual” value [3, 10] was 42394 /mm^3 and 36166 /mm^3. For the same molecule, the “No. of mosquitoes infected/dissected” value ([3]; 3.16 mg/kg at 0 hr, feeding +5 hr) was 0/53 and 15/46, the “% infectivity” value [3, 11] was “(0) %” and the “No. of mosquitoes infected/dissected” value [3, 11] was 0/33 and 0/43. The “Parasitaemia/mm^3 Asexual” value [3, 11] was 23112 /mm^3 and 21204 /mm^3, the “Parasitaemia/mm^3 Gametocytes” value [3, 11] was 749 /mm^3 and 670 /mm^3 and the “oocyst no. per gut (Mean ± SD)” value [3, 11] was “Nil”. For the same molecule, the “No. of mosquitoes infected/dissected” value [3, 12] was 37/51 and 20/47, the “Parasitaemia/mm^3 Asexual” value [3, 12] was 29680 /mm^3 and 16824 /mm^3 and the “Parasitaemia/mm^3 Gametocytes” value [3, 12] was 1230 /mm^3 and 1026 /mm^3. The gametocytocidal action ([3]; 3.16 mg/kg, +24 hr) was “complete gametocytocidal action”, the “radioactivity found in liver tissue” value [4] was 45% and the “decrease in GSH level compared to controls” value [5] was “statistically significant”. The “concentration at which fall in GSH levels reached statistical significance” value (normal erythrocytes) was 10000 ng/mL, the “GSH (mg %) Mean ± SE” value (normal erythrocytes; dose 1.00 μg/ml) was 43.50 ± 5.70 mg % and the “GSH (mg %) Mean ± SE” value (normal erythrocytes; dose 5.00 μg/ml) was 39.00 ± 6.16 mg %. The “increase of mean Met-Hb values over day 0” value ([6]; Group I, 1.0 mg/kg, day 7) was 3.7 fold, the “increase of Met-Hb over corresponding day 0 value” ([6]; Group II, 3.0 mg/kg) was 10.5 fold and the direct sporontocidal activity (rodent malaria [7]) was “quite inactive”.
